Data taken from the supplement of paper PMC10307832.

How the values were obtained:
Assay in all cases: relative viability (nuclei count vs DMSO), 5 days (fraction); higher = more cells survive
Masitinib + Tozasertib = compound: Cc1ccc(NC(=O)c2ccc(CN3CCN(C)CC3)cc2)cc1Nc1nc(-c2cccnc2)cs1 [Masitinib] + Cc1cc(Nc2cc(N3CCN(C)CC3)nc(Sc3ccc(NC(=O)C4CC4)cc3)n2)n[nH]1 [Tozasertib] (partner 0.1 µM)
Outline: (§1)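 Lung cancer cell lines were pin-tool dosed in 1536-well plates on the day after seeding, with either a lone drug or a fixed anchor-drug dose plus five library-drug doses (not always all listed) in √10 steps. Nuclei were counted on 4× images after 5 days. Relative viability is the ratio of treated-well to vehicle-well nuclei counts, with each value a median of duplicate plates.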

Masitinib + Bortezomib = compound: Cc1ccc(NC(=O)c2ccc(CN3CCN(C)CC3)cc2)cc1Nc1nc(-c2cccnc2)cs1 [Masitinib] + CC(C)C[C@H](NC(=O)[C@H](Cc1ccccc1)NC(=O)c1cnccn1)B(O)O [Bortezomib] (partner 0.002 µM)
Outline: as §1

Masitinib + Pemetrexed = compound: Cc1ccc(NC(=O)c2ccc(CN3CCN(C)CC3)cc2)cc1Nc1nc(-c2cccnc2)cs1 [Masitinib] + Nc1nc2[nH]cc(CCc3ccc(C(=O)N[C@@H](CCC(=O)O)C(=O)O)cc3)c2c(=O)[nH]1 [Pemetrexed] (partner 0.2 µM)
Outline: as §1

[1] = compound: CC1=CC(=CC=C1)NC2=NC(=CS2)C3=CC=NC=C3 + Cc1nc(Nc2ncc(C(=O)Nc3c(C)cccc3Cl)s2)cc(N2CCN(CCO)CC2)n1 [Dasatinib] (partner 0.075 µM)
Outline: as §1

Row | Cell Line | relative viability (Masitinib + Tozasertib; first compound 0.03162 µM) | relative viability (Masitinib + Tozasertib; first compound 0.3162 µM) | relative viability (Masitinib + Tozasertib; first compound 1 µM) | relative viability (Masitinib + Bortezomib; first compound 0.01 µM) | relative viability (Masitinib + Bortezomib; first compound 0.03162 µM) | relative viability (Masitinib + Bortezomib; first compound 0.1 µM) | relative viability (Masitinib + Bortezomib; first compound 0.3162 µM) | relative viability (Masitinib + Bortezomib; first compound 1 µM) | relative viability (Masitinib + Pemetrexed; first compound 0.03162 µM) | relative viability (Masitinib + Pemetrexed; first compound 0.1 µM) | relative viability (Masitinib + Pemetrexed; first compound 0.3162 µM) | relative viability (Masitinib + Pemetrexed; first compound 1 µM) | relative viability ([1]; first compound 0.08 µM) | relative viability ([1]; first compound 0.253 µM) | relative viability ([1]; first compound 0.8 µM) | relative viability ([1]; first compound 2.53 µM) | relative viability ([1]; first compound 8 µM) | relative viability (Masitinib + Tozasertib; first compound 0.01 µM) | relative viability (Masitinib + Tozasertib; first compound 0.1 µM) | relative viability (Masitinib + Pemetrexed; first compound 0.01 µM)
1 | HCC-366 | 0.0721 | 0.0725 | 0.0736 | 1.04 | 0.905 | 1.08 | 1.01 | 1.14 | 0.174 | 0.148 | 0.137 | 0.146 | 0.543 | 0.567 | 0.625 | 0.48 | 0.365 |  |  | 
2 | HCC-827 | 0.444 | 0.457 | 0.514 | 0.842 | 1.04 | 1.03 | 1.09 | 1.08 | 0.278 | 0.255 | 0.185 | 0.257 | 0.422 | 0.352 | 0.437 | 0.455 | 0.464 | 0.378 | 0.444 | 0.264
3 | HOP-62 | 0.349 | 0.414 | 0.395 | 0.573 | 0.598 | 0.845 | 0.799 | 0.769 | 0.325 | 0.323 | 0.462 | 0.404 | 0.52 | 0.605 | 0.527 | 0.594 | 0.449 | 0.366 | 0.408 | 0.286
4 | LC-2-ad | 0.443 | 0.391 | 0.384 | 0.816 | 0.992 | 0.926 | 0.996 | 0.93 | 0.29 | 0.268 | 0.248 | 0.247 | 0.522 |  | 0.59 | 0.431 | 0.478 | 0.426 | 0.435 | 0.265
5 | LCLC-97TM1 | 0.38 | 0.247 | 0.286 | 0.61 |  | 0.749 | 0.741 | 0.83 | 0.154 | 0.169 | 0.173 | 0.168 | 0.898 | 0.824 | 0.963 | 0.856 | 1.01 |  | 0.261 | 0.168
6 | LCLC-103H | 0.497 | 0.443 | 0.434 | 0.821 | 1.23 | 1.02 | 0.948 | 0.994 | 0.465 | 0.416 | 0.469 | 0.424 | 0.517 | 0.44 | 0.41 | 0.386 | 0.385 | 0.43 | 0.506 | 
7 | LOU-NH91 | 0.666 | 0.588 | 0.626 | 0.481 | 0.468 | 0.506 | 0.492 | 0.49 | 0.312 | 0.402 | 0.365 | 0.376 | 0.464 | 0.51 | 0.432 | 0.472 | 0.458 | 0.641 | 0.728 | 0.363
8 | LU99A | 0.221 | 0.269 | 0.257 | 1.03 | 1.12 | 1.02 | 1.21 | 1.07 | 0.21 | 0.16 | 0.181 | 0.219 | 0.543 | 0.525 | 0.521 | 0.517 | 0.479 | 0.289 | 0.282 | 0.158
9 | LXF-289 | 0.174 | 0.232 | 0.177 | 0.876 | 0.97 | 0.966 | 1.06 | 0.992 | 0.973 | 0.917 | 0.971 | 0.943 | 0.194 | 0.214 | 0.224 | 0.183 | 0.159 | 0.214 | 0.2 | 0.773
10 | NCI-H23 | 0.313 | 0.223 | 0.263 | 1.06 | 1.05 | 1.14 | 1.03 | 1.11 | 0.607 | 0.699 | 0.641 | 0.626 | 0.74 | 0.542 | 0.741 | 0.714 | 0.792 | 0.336 | 0.4 | 0.795
11 | NCI-H322M | 0.513 | 0.449 | 0.467 | 1.23 | 1.11 | 1.26 | 1.21 | 1.17 | 0.594 | 0.625 | 0.615 | 0.582 | 0.244 | 0.222 | 0.257 | 0.264 | 0.259 | 0.452 | 0.485 | 0.606
12 | NCI-H441 | 0.571 | 0.7 | 0.473 | 0.777 | 0.451 | 0.658 | 0.673 | 0.448 | 0.273 | 0.244 | 0.261 | 0.256 | 0.584 | 0.482 | 0.834 | 0.585 | 0.585 | 0.67 | 0.637 | 0.261
13 | NCI-H460 | 0.4 | 0.0644 | 0.168 | 1.03 | 1 | 1.2 | 1.15 | 1.28 | 0.0629 | 0.0594 | 0.0647 | 0.0579 | 0.44 | 0.306 | 0.554 | 0.381 | 0.343 | 0.288 | 0.313 | 0.0557
14 | NCI-H520 | 0.476 | 0.451 | 0.358 | 0.598 |  | 0.629 | 0.686 | 0.774 | 0.851 | 0.731 | 0.77 | 0.857 | 0.225 | 0.239 | 0.25 | 0.209 | 0.243 | 0.368 | 0.566 | 0.652
15 | NCI-H596 | 0.73 | 1.08 | 0.716 | 1.09 | 1.06 | 1.2 | 1.01 | 1.23 | 0.536 | 0.501 | 0.463 | 0.472 | 0.501 | 0.507 | 0.584 | 0.524 | 0.435 | 0.972 | 1.07 | 0.553
16 | NCI-H647 | 0.209 | 0.261 | 0.232 | 1.03 | 0.768 | 1.1 | 1.05 | 1.09 | 0.178 | 0.174 | 0.185 | 0.164 | 0.17 | 0.172 | 0.195 | 0.148 | 0.196 | 0.212 | 0.394 | 0.166
17 | NCI-H650 | 0.732 | 0.745 | 0.665 | 0.82 | 0.565 | 0.95 | 1.08 | 0.635 | 0.832 | 1.04 | 1.01 | 0.99 | 0.366 | 0.413 | 0.447 | 0.376 | 0.475 | 0.642 | 0.717 | 0.857
18 | NCI-H661 | 0.372 | 0.342 | 0.363 | 0.867 | 0.74 | 0.927 | 0.761 | 0.585 | 0.913 | 0.946 | 0.939 | 0.895 | 0.686 | 0.862 | 0.892 | 0.774 | 0.808 | 0.338 | 0.344 | 0.9
19 | NCI-H838 | 0.281 | 0.206 | 0.236 | 0.793 | 0.83 | 0.965 | 0.758 | 0.69 | 0.256 | 0.254 | 0.247 | 0.244 | 0.233 | 0.248 | 0.244 | 0.293 | 0.267 | 0.25 | 0.273 | 0.267
20 | NCI-H1355 | 0.469 | 0.384 | 0.394 | 0.949 | 1.3 | 1.02 | 1.02 | 1.06 | 0.92 | 1.1 | 0.853 | 1.08 | 0.399 | 0.463 | 0.341 | 0.386 | 0.375 | 0.534 | 0.561 | 0.9
21 | NCI-H1437 | 0.454 | 0.426 | 0.36 | 0.468 | 0.637 | 0.585 | 0.577 | 0.438 | 0.355 | 0.37 | 0.325 | 0.311 | 0.497 | 0.438 | 0.586 | 0.392 | 0.649 | 0.399 | 0.4 | 0.312
22 | NCI-H1650 | 0.329 | 0.326 | 0.23 | 0.198 | 0.172 | 0.186 | 0.215 | 0.212 | 0.49 | 0.395 | 0.365 | 0.374 | 0.325 | 0.28 | 0.366 | 0.228 | 0.221 | 0.346 | 0.297 | 0.389
23 | NCI-H1651 | 0.68 | 0.484 | 0.583 | 0.891 | 0.941 | 0.927 | 0.983 | 0.944 | 0.62 | 0.527 | 0.632 | 0.588 | 0.26 | 0.377 | 0.553 | 0.385 | 0.415 | 0.743 | 0.685 | 0.565
24 | NCI-H1666 | 0.495 | 0.58 | 0.585 | 0.71 | 0.726 | 0.854 | 0.555 | 0.612 | 0.842 | 0.885 | 0.708 | 0.77 | 0.734 | 0.737 | 0.699 | 0.522 | 0.582 |  | 0.586 | 0.943
25 | NCI-H1734 | 0.27 | 0.276 | 0.272 | 0.899 | 0.772 | 1.01 | 0.949 | 0.853 | 0.465 | 0.396 | 0.376 | 0.404 | 0.471 | 0.435 | 0.491 | 0.503 | 0.538 | 0.285 | 0.318 | 0.408
26 | NCI-H1755 | 0.573 | 0.57 | 0.454 |  | 0.966 | 0.832 | 0.907 | 0.816 | 0.411 | 0.427 | 0.446 | 0.463 | 0.331 | 0.417 | 0.355 | 0.185 | 0.321 |  | 0.57 | 0.357
27 | NCI-H1915 | 0.453 | 0.44 | 0.387 |  | 0.894 | 0.805 | 1.04 | 0.926 | 0.507 |  | 0.467 | 0.496 | 0.282 | 0.328 | 0.289 | 0.318 | 0.328 |  |  | 
